Experimental findings from publication PMC6352943, “Novel pyrazolo[3,4-d]pyrimidines: design, synthesis, anticancer activity, dual EGFR/ErbB2 receptor tyrosine kinases inhibitory activity, effects on cell cycle profile and caspase-3-mediated apoptosis” (Journal of Enzyme Inhibition and Medicinal Chemistry, 2019) are described below.

One data set deals with A498. The data set is described as follows: NCI 60 cell line single dose screen (SRB). It is filed as cell-based. The note with it: Homo sapiens; A498 (renal cancer), single dose 10^−5 M, 48 h; read-out: Growth inhibition percentage. Put shortly:
(§1)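 Cells were plated and grown 24 h at 37 °C, 5% CO2 before compound addition from DMSO stock, then exposed 48 h. Adherent cells were fixed with cold TCA (final 10%) and suspension cells with 16% TCA. SRB-stained protein was read at 515 nm and percent growth was calculated against time-zero and untreated plates.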

The subject of the next data set is HCT-116. The data set is described as follows: NCI 60 cell line single dose screen (SRB). The format is cell-based. Conditions: Homo sapiens; HCT-116 (colon cancer), single dose 10^−5 M, 48 h; read-out: Growth inhibition percentage. A digest of the protocol:
as §1

A further data set deals with HCT-15. Nature of the data set: NCI 60 cell line single dose screen (SRB). The note with it: Homo sapiens; HCT-15 (colon cancer), single dose 10^−5 M, 48 h; read-out: Growth inhibition percentage. The format is cell-based. Put shortly:
as §1

The next data set has as its system HOP-62. Nature of the data set: NCI 60 cell line single dose screen (SRB). The format is cell-based. Conditions: Homo sapiens; HOP-62 (non-small cell lung cancer), single dose 10^−5 M, 48 h; read-out: Growth inhibition percentage. A digest of the protocol: as §1
The subject of a further data set is K-562. Nature of the data set: NCI 60 cell line single dose screen (SRB). It is filed as cell-based. Conditions: Homo sapiens, K562; K-562 (leukemia), single dose 10^−5 M, 48 h; read-out: Growth inhibition percentage. Put shortly: as §1
In a further data set the test system is KM12. Nature of the data set: NCI 60 cell line single dose screen (SRB). It is filed as cell-based. Conditions: Homo sapiens; KM12 (colon cancer), single dose 10^−5 M, 48 h; read-out: Growth inhibition percentage. Put shortly: as §1
The next data set deals with LOX IMVI. Nature of the data set: NCI 60 cell line single dose screen (SRB). It is filed as cell-based. The note with it: Homo sapiens; LOX IMVI (melanoma), single dose 10^−5 M, 48 h; read-out: Growth inhibition percentage. Put shortly:
as §1

The next data set has as its system MDA-MB-468. The data set is described as follows: NCI 60 cell line single dose screen (SRB). The format is cell-based. The note with it: Homo sapiens; MDA-MB-468 (breast cancer), single dose 10^−5 M, 48 h; read-out: Growth inhibition percentage. Put shortly: as §1
The test system of a further data set is NCI-H322M. Nature of the data set: NCI 60 cell line single dose screen (SRB). Conditions: Homo sapiens; NCI-H322M (non-small cell lung cancer), single dose 10^−5 M, 48 h; read-out: Growth inhibition percentage. It is filed as cell-based. A digest of the protocol:
as §1

A further data set has as its system NCI/ADR-RES. The data set is described as follows: NCI 60 cell line single dose screen (SRB). The format is cell-based. The note with it: Homo sapiens; NCI/ADR-RES (ovarian cancer), single dose 10^−5 M, 48 h; read-out: Growth inhibition percentage. A digest of the protocol:
as §1

A further data set has as its system OVCAR-5. Nature of the data set: NCI 60 cell line single dose screen (SRB). The format is cell-based. The note with it: Homo sapiens; OVCAR-5 (ovarian cancer), single dose 10^−5 M, 48 h; read-out: Growth inhibition percentage. Put shortly: as §1
A further data set has as its system PC-3. The data set is described as follows: NCI 60 cell line single dose screen (SRB). The format is cell-based. The note with it: Homo sapiens; PC-3 (prostate cancer), single dose 10^−5 M, 48 h; read-out: Growth inhibition percentage. A digest of the protocol: as §1
For another data set, the system named is SN12C. The data set is described as follows: NCI 60 cell line single dose screen (SRB). The format is cell-based. The note with it: Homo sapiens; SN12C (renal cancer), single dose 10^−5 M, 48 h; read-out: Growth inhibition percentage. Put shortly:
as §1

Another data set concerns SNB-19. Nature of the data set: NCI 60 cell line single dose screen (SRB). It is filed as cell-based. Conditions: Homo sapiens; SNB-19 (CNS cancer), single dose 10^−5 M, 48 h; read-out: Growth inhibition percentage. Put shortly:
as §1

A further data set concerns T-47D. The data set is described as follows: NCI 60 cell line single dose screen (SRB). The format is cell-based. Conditions: Homo sapiens, T47D; T-47D (breast cancer), single dose 10^−5 M, 48 h; read-out: Growth inhibition percentage. A digest of the protocol: as §1
Another data set relates to UACC-257. The data set is described as follows: NCI 60 cell line single dose screen (SRB). The format is cell-based. The note with it: Homo sapiens; UACC-257 (melanoma), single dose 10^−5 M, 48 h; read-out: Growth inhibition percentage. A digest of the protocol: as §1
In another data set the test system is NCI-H460 (EGFR-WT). Nature of the data set: MTT cell viability assay. The format is cell-based, human. The method, then:
All of the other chemicals and reagents were from Sigma, or Invitrogen.
Measure the background absorbance of multiwell plates at 690 nm and subtract from the 570 nm measurement. […] Each experiment was carried out in triplicate.
(Tetrazolium dyes change colour on reduction, which living cells bring about.)

Another data set relates to CAKI-1. Nature of the data set: NCI 60 cell line single dose screen (SRB). The format is cell-based. The note with it: Homo sapiens; CAKI-1 (renal cancer), single dose 10^−5 M, 48 h; read-out: Growth inhibition percentage. A digest of the protocol:
as §1

The test system of the next data set is UACC-62. The data set is described as follows: NCI 60 cell line single dose screen (SRB). It is filed as cell-based. The note with it: Homo sapiens; UACC-62 (melanoma), single dose 10^−5 M, 48 h; read-out: Growth inhibition percentage. Put shortly: as §1

A word on the inhibition: it is the change of the read-out against control, counted positive when it falls. The term melting point denotes the temperature of the solid-liquid transition.

Bounds are passed on as bounds.

For `Cc1nn(-c2ccc(F)cc2)c2ncnc(Nc3ccc(F)c(Cl)c3)c12` [Compound 7d, N-(3-Chloro-4-fluorophenyl)-1–(4-fluorophenyl)-3-methyl-1H-pyrazolo[3,4-d] pyrimidin-4-amine], the inhibition at 10 µM with A498 is -5.43%; with HCT-116, 19.2%; in the data set on HCT-15, 2.75%; with HOP-62 it was 38.7%; in the data set on K-562, 1.78%; in the data set on KM12, 1.96%. The inhibition at 10 µM was 8.68% with LOX IMVI; -1.69% in the data set with MDA-MB-468; 12% with NCI-H322M; 5.13% with NCI/ADR-RES; 4.92% with OVCAR-5; 17.2% with PC-3. For the same molecule, the inhibition at 10 µM in the data set with SN12C was 21.5%; with SNB-19, 20.4%; in the data set on T-47D, 27.4%; in the data set on UACC-257, -1.41%. Besides, the IC50 in the data set on NCI-H460 (EGFR-WT) (Homo sapiens, NCI-H460 (EGFR-WT) lung cancer, MTT, 48 h, mean ± SD of three experiments, read-out: IC50 (concentration required for 50% inhibition of cell viability)) was determined as 18.7 ± 0.71 µM. The “Potency relative to Erlotinib (fold more potent)” value in the data set with NCI-H460 (EGFR-WT) (NCI-H460 EGFR-WT, from IC50 values) is roughly 3.5 fold.
Molecule `Cc1nn(-c2ccc(F)cc2)c2nc[nH]c(=O)c12` [Compound 3, 1–(4-Fluorophenyl)-3-methyl-1H-pyrazolo[3,4-d]pyrimidin-4(5H)-one] showed a melting point greater than 300 °C. The inhibition at 10 µM in the data set on A498 is 0.02%. In addition, in the data set with HCT-116, the inhibition at 10 µM is -1.64%. The inhibition at 10 µM in the data set with HCT-15 was -6.88%. For the same molecule, the inhibition at 10 µM in the data set with HOP-62 was -6.53%. In the data set on K-562, the inhibition at 10 µM was 1.69%. For the same molecule, in the data set on KM12, the inhibition at 10 µM is 1.48%. The inhibition at 10 µM in the data set on LOX IMVI is 2.19%. For the same molecule, the inhibition at 10 µM in the data set on MDA-MB-468 was -11.5%. For the same molecule, in the data set on NCI-H322M, the inhibition at 10 µM was determined as 5.19%. For the same molecule, in the data set with NCI/ADR-RES, the inhibition at 10 µM is -1.22%. Also, the inhibition at 10 µM with OVCAR-5 was -10.4%. The inhibition at 10 µM in the data set with PC-3 is 1.46%. Also, the inhibition at 10 µM in the data set on SN12C is -2.5%. Moreover, the inhibition at 10 µM in the data set with SNB-19 was -3.69%. Further, the inhibition at 10 µM in the data set on T-47D came out at 0.23%. Further, the inhibition at 10 µM in the data set on UACC-257 is -8.15%.
`Cc1nn(-c2ccc(F)cc2)c2ncnc(Cl)c12` [Compound 6, 4-Chloro-1–(4-fluorophenyl)-3-methyl-1H-pyrazolo[3,4-d]pyrimidine] yielded a melting point of 178 to 180 °C. In addition, in the data set with A498, the inhibition at 10 µM is 4.71%. In addition, the inhibition at 10 µM in the data set on CAKI-1 was determined as 1.02%. Moreover, the inhibition at 10 µM in the data set with HCT-116 is 7.98%. In the data set with HCT-15, the inhibition at 10 µM came out at 1.32%. The inhibition at 10 µM in the data set with HOP-62 is 15.4%. Besides, the inhibition at 10 µM in the data set on K-562 was 15.4%. The inhibition at 10 µM with KM12 amounted to 0.99%. For the same molecule, the inhibition at 10 µM in the data set with LOX IMVI was 6.64%. Also, the inhibition at 10 µM in the data set on MDA-MB-468 turned out to be 8.7%. In addition, in the data set with NCI-H322M, the inhibition at 10 µM is 5.32%. The inhibition at 10 µM with NCI/ADR-RES is -8.11%. For the same molecule, in the data set with OVCAR-5, the inhibition at 10 µM is -12.3%. Further, the inhibition at 10 µM in the data set with PC-3 amounted to 14.8%. Besides, in the data set with SN12C, the inhibition at 10 µM was 1.02%. In the data set on SNB-19, the inhibition at 10 µM amounted to 7.79%. Besides, in the data set with T-47D, the inhibition at 10 µM was 0.28%. Also, the inhibition at 10 µM in the data set with UACC-257 stood at 17.4%. Besides, the inhibition at 10 µM with UACC-62 stood at 12.6%.
In turn, `Cc1nn(-c2ccc(F)cc2)c2nc(N)nc(N)c12` [Compound 5, 1–(4-Fluorophenyl)-3-methyl-1H-pyrazolo[3,4-d]pyrimidine-4,6-diamine] gave a melting point greater than 300 °C. Also, the inhibition at 10 µM with A498 is -3.11%. In addition, the inhibition at 10 µM in the data set with HCT-116 was -2.75%. Also, the inhibition at 10 µM with HCT-15 is -3.69%. For the same molecule, in the data set with HOP-62, the inhibition at 10 µM is -8.35%. In addition, in the data set on K-562, the inhibition at 10 µM is -11.9%. The inhibition at 10 µM with KM12 turned out to be 1.24%. Further, the inhibition at 10 µM in the data set with LOX IMVI turned out to be 2.19%. Also, the inhibition at 10 µM in the data set with MDA-MB-468 was -15.5%. The inhibition at 10 µM with NCI-H322M is 8.14%. For the same molecule, the inhibition at 10 µM with NCI/ADR-RES was -3.45%. In the data set with OVCAR-5, the inhibition at 10 µM was -1.61%. The inhibition at 10 µM with PC-3 came to 3.59%. The inhibition at 10 µM with SN12C is -2.74%. The inhibition at 10 µM with SNB-19 is -7.94%. In addition, in the data set with T-47D, the inhibition at 10 µM is -2.65%. In addition, the inhibition at 10 µM with UACC-257 was -18.7%.
